Assay results: US20240343699A1, “DERIVATIVES OF SUBSTITUTED MORPHOLINES AND USES THEREOF” (Supernus Pharmaceuticals, Inc., priority 2023, published 2024)
Like-named read-outs stand apart in the source and are kept apart here.

Key:
[1] = Stability in human whole blood, red blood cells and plasma (with/without protease inhibitors, pH 6.0); format: in vitro ADME
Method: (§1) Stability of Test Articles at Different pH Values. 10 mM stock solutions of COMPOUND A were prepared in DMSO. From this stock solution, a single concentration in a 10 μL aliquot was added to three fluid matrices: SGF at pH 2.0 (gastric), SIF at pH 6.0 (upper intestine), and PBS at 7.4 (systemic). The final volume was 1 mL (0.1 mM). The preparations were then incubated at 37° C. and samples were collected at 0, 15, 30, 60, and 120 min for analysis of parent material by LC/MS/MS. The collected sample was quenched in acetonitrile/0.1% formic acid mixture. Red Blood Cell (RBC): Human and rat blood were centrifuged to separate out red blood cells at […] for 15 min. The upper plasma level was aspirated with a micropipette and placed in a bleach solution for disposal. The RBC pellet was resuspended in sterile isotonic saline. The pellet was gently resuspended by rocking the tube. The sample was then centrifuged again to collect the RBC pellet and then resuspended and washed one more time following the same procedure. A total of three was done. Following the last wash and centrifugation, the RBCs were resuspended with PBS; and mixed by inversion. Aliquots of the resuspended and washed RBCs were then placed into 4 reaction tubes. These tubes were centrifuged to collect the RBCs. The fluid level was marked on each tube, then the supernatant was aspirated off and the cells resuspended with room temperature PBS pH 7.4 to the original mark. An aliquot of the RBC suspension was added to four sterile tubes containing PBS pH 7.4 at room temperature.
(§2) Stability in Human and Rat Red Blood cells and Hemolysis. […] After centrifugation, 70 μL of supernatant (without disturbing the pellet) was transferred to a clean and clear polystyrene flat bottomed 96-well plate and the absorbance of the sample at a single wavelength was measured using a Bio Tech Synergy Hl Plate Reader at a wavelength of 410 nm. […] Stability was measured by measuring loss of parent compound using LC/MS/MS.

[2] = Stability in rat whole blood, red blood cells and plasma; format: in vitro ADME; settings: 0.5 mM, 0-120 min
Method: (§3) Stability of Test Articles at Different pH Values. 10 mM stock solutions of COMPOUND A were prepared in DMSO. From this stock solution, a single concentration in a 10 μL aliquot was added to three fluid matrices: SGF at pH 2.0 (gastric), SIF at pH 6.0 (upper intestine), and PBS at 7.4 (systemic). The final volume was 1 mL (0.1 mM). The preparations were then incubated at 37° C. and samples were collected at 0, 15, 30, 60, and 120 min for analysis of parent material by LC/MS/MS. The collected sample was quenched in acetonitrile/0.1% formic acid mixture. Red Blood Cell (RBC): Human and rat blood were centrifuged to separate out red blood cells at […] for 15 min. The upper plasma level was aspirated with a micropipette and placed in a bleach solution for disposal. The RBC pellet was resuspended in sterile isotonic saline. The pellet was gently resuspended by rocking the tube. […]
as §2

human red blood cells = test: Hemolysis in human blood; format: cell-based
Method: as §3, §2

rat red blood cells = test: Hemolysis in rat blood; format: cell-based
Method: as §1, §2

anxiety-like behavior = test: Elevated plus maze (EPM); format: in vivo, male Wistar rats; settings: for Closed arm entries / Closed arm returns / Head dips in open arms / Stretch-attend postures / Time in closed arms / Time in open arms / Total arm entries: mean; for % Time in open arms / Open Arm Entries / Total distance travelled: mean ± S.E.M.
recognition memory = test: Spontaneous novel object recognition (NOR), 48 hr retention interval; format: in vivo, male Wistar rats; settings: 48 hr delay
sleep/wake and cataplexy = format: in vivo, male DTA mice
[3] = 30 mg/kg PO 20 min prior to EPM
[4] = 60 mg/kg PO 20 min prior to EPM
[5] = 120 mg/kg PO 40 min prior to EPM
[6] = COMPOUND A 30, 90 and 120 mg/kg, first 6 h
[7] = COMPOUND A 90 and 120 mg/kg, ZT19-ZT24
[8] = COMPOUND A 90 and 120 mg/kg, first 6 h
[9] = all concentrations of COMPOUND A, first 6 h

CCOc1ccccc1OC[C@@H]1CN(C(=O)OC(C)OC(=O)[C@@H](N)C(C)C)CCO1 (stereo partly shown) [COMPOUND A]
stability in human plasma at pH 6.0 ([1]; 0-30 min): slower degradation compared to the other matrices | stability in human plasma with protease inhibitor cocktail ([1]; 0-30 min): time-dependent decrease in the amount of parent compound present | stability in human red blood cells and whole blood ([1]; 0.5 mM, 0-120 min): time-dependent decrease in the amount of parent compound present | stability in rat red blood cells, plasma and whole blood [2]: time-dependent decrease in the amount of parent compound present | hemolysis (% RBC lysis) (human red blood cells; human blood, 25, 50, 100 μM, 1 hr): no detectable hemolysis | EC50 (% RBC lysis) (human red blood cells; human blood, 60 min exposure): outside the concentration range tested | hemolysis (% RBC lysis) (rat red blood cells; rat blood, 25, 50, 100 μM, 1 hr): no detectable hemolysis | EC50 (% RBC lysis) (rat red blood cells; rat blood, 60 min exposure): outside the concentration range tested | Closed arm entries (anxiety-like behavior; [3]): 10.00 | Closed arm returns (anxiety-like behavior; [3]): 2.00 | Head dips in open arms (anxiety-like behavior; [3]): 2.25 | Stretch-attend postures (anxiety-like behavior; [3]): 18.00 | Time in closed arms (anxiety-like behavior; [3]): 282.58 s | Time in open arms (anxiety-like behavior; [3]): 8.74 s | Total arm entries (anxiety-like behavior; [3]): 11.00 | % Time in open arms (anxiety-like behavior; [3]): 2.91 ± 1.28% | Open Arm Entries (anxiety-like behavior; [3]): 1.00 ± 0.33 | Total distance travelled (anxiety-like behavior; [3]): 1591.15 ± 73.52 cm | Closed arm entries (anxiety-like behavior; [4]): 7.00 | Closed arm returns (anxiety-like behavior; [4]): 2.13 | Head dips in open arms (anxiety-like behavior; [4]): 3.63 | Stretch-attend postures (anxiety-like behavior; [4]): 18.63 | Time in closed arms (anxiety-like behavior; [4]): 281.10 s | Time in open arms (anxiety-like behavior; [4]): 7.25 s | Total arm entries (anxiety-like behavior; [4]): 7.63 | % Time in open arms (anxiety-like behavior; [4]): 2.42 ± 0.92% | Open Arm Entries (anxiety-like behavior; [4]): 0.63 ± 0.18 | Total distance travelled (anxiety-like behavior; [4]): 1318.06 ± 39.58 cm | Closed arm entries (anxiety-like behavior; [5]): 9.63 | Closed arm returns (anxiety-like behavior; [5]): 2.00 | Head dips in open arms (anxiety-like behavior; [5]): 2.25 | Stretch-attend postures (anxiety-like behavior; [5]): 20.38 | Time in closed arms (anxiety-like behavior; [5]): 283.06 s | Time in open arms (anxiety-like behavior; [5]): 0.85 s | Total arm entries (anxiety-like behavior; [5]): 9.88 | % Time in open arms (anxiety-like behavior; [5]): 0.28 ± 0.19% | Open Arm Entries (anxiety-like behavior; [5]): 0.25 ± 0.16 | Total distance travelled (anxiety-like behavior; [5]): 1476.54 ± 60.73 cm | total distance traveled vs vehicle (anxiety-like behavior; COMPOUND A 60 and 120 mg/kg p.o.): travelled a significantly shorter distance | preference for the novel object (exploration times) (recognition memory; COMPOUND A 15 mg/kg p.o.): non-significant trend toward a preference for the novel object | preference for the novel object (exploration times) (recognition memory; COMPOUND A 30, 60, and 90 mg/kg p.o.): significant (p<0.05) preference for the novel object | d2 ratios vs vehicle-control (recognition memory; COMPOUND A 60 and 90 mg/kg p.o.): significant difference (p<0.05) from the vehicle-control response | W and NREM (hourly, cumulative and total time) (sleep/wake and cataplexy; COMPOUND A 30 mg/kg, ZT19-ZT24): W increased overall (treatment effect) and NREM decreased overall | C levels during ZT24 (sleep/wake and cataplexy; COMPOUND A 120 mg/kg): approximately half of vehicle levels | NREM (hourly, cumulative and total time) (sleep/wake and cataplexy; COMPOUND A 120 mg/kg, ZT19-ZT24): NREM increased overall | latency to REM (sleep/wake and cataplexy; COMPOUND A 10, 30, 90, 120 mg/kg p.o., first 6 h of dark period): increased the latency to REM | number of C bouts (sleep/wake and cataplexy; [6]): the number of C bouts decreased overall | total NREM time (sleep/wake and cataplexy; [6]): total NREM time increased | total time in C (cataplexy) (sleep/wake and cataplexy; [6]): total time in C decreased | REM and C during the 6-h recording (sleep/wake and cataplexy; COMPOUND A 90 and 120 mg/kg): practically eliminated | REM:NR ratios (sleep/wake and cataplexy; [7]): REM:NR ratios decreased | latency to REM (sleep/wake and cataplexy; [7]): The latency to REM increased | LMA (sleep/wake and cataplexy; [8]): LMA decreased overall | Total W time (sleep/wake and cataplexy; [8]): Total W time decreased | C (cataplexy) (sleep/wake and cataplexy; COMPOUND A two highest concentrations, ZT19-ZT24): significantly decreased | NREM alpha, beta and high gamma EEG power (sleep/wake and cataplexy; [9]): decreased overall | total time in REM (sleep/wake and cataplexy; [9]): decreased total time in REM | REM:NR ratios (sleep/wake and cataplexy; all test conditions, first 6 h): REM:NR ratios decreased
